# Earlier results in patent US10111869B2, “Reduction of opioid blood fluctuations” (priority 2009, dated 2018).
# Settings: in vivo
structure (smiles),measurement,value
COc1ccc2c3c1O[C@H]1C(=O)CC[C@@]4(O)[C@@H](C2)N(C)CC[C@]314 [Oxycodone],analgesic potency relative to morphine,about twice
